The record followed here is US5658906A, “Cysteine protease and serine protease inhibitors” (Cephalon, Inc., priority 1996, dated 1997).

This test addresses T1, Calpain I (Homo sapiens, UniProt P07384).
T1 construct: Calpain I was purified from human red blood cells; from tissue; host or cells: human red blood cells (packed, outdated)
T1 sequence (P07384 1-714): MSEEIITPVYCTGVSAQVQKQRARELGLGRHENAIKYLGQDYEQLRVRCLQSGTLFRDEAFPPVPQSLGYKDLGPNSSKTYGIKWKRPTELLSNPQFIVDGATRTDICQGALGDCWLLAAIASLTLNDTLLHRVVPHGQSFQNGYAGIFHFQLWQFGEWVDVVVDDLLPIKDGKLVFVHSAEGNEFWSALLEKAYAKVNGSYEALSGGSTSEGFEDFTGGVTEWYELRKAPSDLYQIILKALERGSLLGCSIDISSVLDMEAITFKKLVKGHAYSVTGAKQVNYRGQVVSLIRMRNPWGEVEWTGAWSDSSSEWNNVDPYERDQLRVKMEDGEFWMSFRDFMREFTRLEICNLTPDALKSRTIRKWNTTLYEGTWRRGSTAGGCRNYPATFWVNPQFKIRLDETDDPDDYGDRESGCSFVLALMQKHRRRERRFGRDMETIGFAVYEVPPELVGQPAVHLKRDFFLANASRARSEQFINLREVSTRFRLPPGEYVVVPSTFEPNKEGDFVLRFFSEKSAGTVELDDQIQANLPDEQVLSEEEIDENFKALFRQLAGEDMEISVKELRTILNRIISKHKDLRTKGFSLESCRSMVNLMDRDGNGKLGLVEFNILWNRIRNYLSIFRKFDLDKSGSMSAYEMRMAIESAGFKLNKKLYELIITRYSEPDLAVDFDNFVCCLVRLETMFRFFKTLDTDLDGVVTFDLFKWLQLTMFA
T1 sequence (P04632 1-268 partner): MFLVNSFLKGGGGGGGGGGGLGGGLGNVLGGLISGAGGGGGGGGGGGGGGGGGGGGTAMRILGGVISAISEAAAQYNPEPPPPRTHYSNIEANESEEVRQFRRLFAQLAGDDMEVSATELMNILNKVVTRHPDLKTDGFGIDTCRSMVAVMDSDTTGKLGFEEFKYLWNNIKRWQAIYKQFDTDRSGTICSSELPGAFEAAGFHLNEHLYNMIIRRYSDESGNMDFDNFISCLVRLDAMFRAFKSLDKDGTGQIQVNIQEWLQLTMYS
Nature of the test: Inhibition and rate of inactivation of calpain I (Succ-Leu-Tyr-MNA hydrolysis). Type of test: biochemical. The following applies: mean of three or more independent analyses, corrected for substrate, k2 = kapp(1+[S]/Km), read-out: k2 (second order rate constant of inactivation), A = Calpain I.
With `CC[C@H](NC(=O)[C@H](CC(C)C)NC(=O)OCc1ccccc1)C(=O)COn1nnc2ccccc21` [Example 5, 1-[N-[N-Benzyloxycarbonyl-L-leucyl]-3S-3-amino-2-oxopentyloxy] benzotriazole], the kinact/KI worked out at 63000 M⁻¹ s⁻¹.

`CC(C)C[C@H](NC(=O)OCc1ccccc1)C(=O)N[C@@H](Cc1ccccc1)C(=O)COn1nnc2cccnc21` [Example 6, 3-[N-[N-Benzyloxycarbonyl-L-leucyl]-3S-4-phenyl-3-amino-2-oxobutyloxy]-3H-triazolo[4,5-b]pyridine]: the kinact/KI was found to be 184000 M⁻¹ s⁻¹. `CC(C)C[C@H](NC(=O)OCc1ccccc1)C(=O)N[C@@H](Cc1ccccc1)C(=O)COn1nnc2ccccc21` [Example 3, 1-[N-[N-Benzyloxycarbonyl-L-leucyl]-3S-4-phenyl-3-amino-2-oxobutyloxy]benzotriazole]: the kinact/KI stood at 150000 M⁻¹ s⁻¹. Regarding `CC(C)C[C@H](NC(=O)OCc1ccccc1)C(=O)N[C@@H](Cc1ccccc1)C(=O)COn1nnc2ccccc2c1=O` [Example 28, 1-[N-[N-Benzyloxycarbonyl-L-leucyl]-3S-4-phenyl-3-amino-2-oxobutyloxy]-3-benzotriazin-4-one], the kinact/KI was found to be 122000 M⁻¹ s⁻¹.
